pIC50: −log10 of the molar value.
Key:
[1] = target: T1, LTB4 receptors (Homo sapiens, UniProt Q15722); assay: LTB4 Receptor Binding Assay (inhibition of specific (3H) LTB4 binding to neutrophils); conditions: 0.6nM (3H) LTB4, human neutrophils, 0°C, 45 minutes, pH 7.4
T1 construct: neutrophils were purified from venous blood of normal human donors; endogenous in cells; host or cells: human neutrophils purified from venous blood of normal donors
Procedure: Neutrophils (4-6×10^6) in 1ml of Hanks' balanced salt solution containing 10mM Hepes Buffer (HBSS), pH 7.4 and 30 μM nordihydroguaiaretic acid were incubated with 0.6nM (^3 H) LTB4 in the presence or absence of test compounds. The incubation was carried out at 0°C. for 45 minutes and terminated by adding 5ml of ice-cold HBSS followed by rapid filtration of incubation mixture under vacuum through GF/C glass fiber filters. The filters were further washed with 10ml HBSS and their radioactivity determined. Specific binding was defined as the difference between total binding and nonspecific binding which was not displaced by 10^- 7M unlabeled LTB4.

[2] = Boyden Chamber Inhibition (as Antagonist); assay type: cell-based; conditions: at 10^-5 (concentration unit not given)
[3] = system: Human Neutrophil; assay: Human Neutrophil Degranulation Assay (LTB4 induced, myeloperoxidase release); assay type: cell-based; conditions: LTB4 5×10^-8 M, cytochalasin B, 37°C, read-out: Inhibition of LTB4 Induced Neutrophil Degranulation IC50
Description: For use in both the "LTB4 receptor Binding Assay" and the "human Neutrophil Degranulation Assay", neutrophils were purified from venous blood of normal human donors using standard techniques of dextran sedimentaion, centrifugation on Histopaque^2 (density solution) and hypotonic lysis of erythrocytes (Boyum, A., Isolation of Leukocytes From Human Blood: Further Observations. Scand. J. Lab. Clin. Inves. 21 (Suppl. 97): 31, 1968). The purity of isolated neutrophilis was ≥95%.
LTB4 induced neutrophil degranulation was determined by measuring the release of myeloperoxidase activity into the incubation medium. Neturophils (3 ×10^6) in 1ml HBSS solution were preincubated with cytochalasin B(5μg) at 37°C. for 5 minutes, followed by preincubation with test compounds for 7 minutes. Neutrophils were then incubated for 2 to 20 minutes with either LTB4 (5 ×10^- 8M) or the chemotatic peptide f-met-leu-phe (5 ×10^- 6M) to induce degranulation. Following incubation, samples were centrifuged and myeloperoxidase was extracted from the cell pellets by sonication in phoshpate buffer containing 0.4% Triton X-100. Triton X-100 was also added to the supernatents to a concentration of 0.4%. The supernatants and the pellet extracts were then assayed spectrophotometrically for myeloperoxide activity by determining the rate of decomposition of H2 O2 withh o-dianisidine as hydrogen donor as described by Renlund, D. G., MacFarlane, J. L., Christensen, R. D., Lynch, R. E., and Rothstein, G., A Quantitative And Sensitive Method For Measurement Of Myeloperoxidase, Clinical Research 28:75A, 1980). Myeloperoxidase activity released into the supernatant was expressed as the percent of the average total activity (pellet plus supernatant).
The inhibition of LTB4 induced neutrophil degranulation was determined for representative compounds of this invention and their corresponding IC50 values were calculated (Table 1). The concentration of a compound which inhibited LTB4 induced neutrophil degranulation by 50% was determined to be its IC50 value.

T1 sequence (Q15722 whole entry): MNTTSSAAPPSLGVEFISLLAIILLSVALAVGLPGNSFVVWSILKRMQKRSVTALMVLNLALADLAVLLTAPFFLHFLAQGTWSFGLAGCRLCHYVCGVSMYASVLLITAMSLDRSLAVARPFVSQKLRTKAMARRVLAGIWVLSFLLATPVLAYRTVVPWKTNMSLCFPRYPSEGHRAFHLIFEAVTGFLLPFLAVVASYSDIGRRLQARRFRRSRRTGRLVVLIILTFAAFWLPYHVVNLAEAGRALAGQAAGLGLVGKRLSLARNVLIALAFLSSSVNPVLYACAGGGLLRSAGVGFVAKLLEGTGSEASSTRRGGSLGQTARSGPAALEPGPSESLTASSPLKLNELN

pIC50 [1]	pIC50 [3]	SMILES	Boyden Chamber Inhibition at 10^-5 (as Antagonist) [2]
5.20	5.28	CCCCCCCCC(O)/C=C/C=C/c1ccc(C(O)CCCC(=O)O)s1 (stereo not drawn)	33%
5.52	6.00	CCCCCCCCC(O)/C=C/C=C/c1ccccc1C(=O)CCCC(=O)O (stereo not drawn)	8%
5.39	5.74	CCCCCCCCC(O)/C=C/C=C/c1ccc(C(=O)CCCC(=O)O)s1 (stereo not drawn)	30%
